Assay results reported in US20130274174A1, “THERAPEUTIC COMBINATION OF DAPTOMYCIN AND PROTEIN SYNTHESIS INHIBITOR ANTIBIOTIC, AND METHODS OF USE” (priority 2011, published 2013).
In brackets after ≈: the same amount, converted by molar mass. Like-named read-outs stand apart in the source and are kept apart here.

Assays:
S. aureus MW2 (NRS123) = experiment: microbe, parasite or virus in culture; format: cell-based, Staphylococcus aureus; conditions: for MIC: Staphylococcus aureus
Outline: (§1)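 MW2 passaged on cation-adjusted Mueller-Hinton II agar with ¼ MIC of TR-700, TR-705, LZD, TIA, CLI, TET, VAN or TMP/SMX plus a linear DAP gradient; ATCC 33591 with ¼ MIC TR-700, TMP/SMX or VAN; DAP-only controls.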

S. aureus ATCC 33591 = experiment: microbe, parasite or virus in culture; format: cell-based, Staphylococcus aureus; conditions: for MIC: Staphylococcus aureus
Outline: as §1

Cn1nnc(-c2ccc(-c3ccc(N4C[C@H](CO)OC4=O)cc3F)cn2)n1 [TR-700, Tedizolid] was tested, and the “DAP MIC lower than DAP-only control” value (S. aureus MW2 (NRS123); MW2, after 30 passages, co-selecting agent at ¼ MIC, total population) was 16 fold, the MIC (S. aureus MW2 (NRS123); NRS123, passage 0, NRS123 WT) was 0.5 µg/mL (≈ 1.35 µM) and the MIC (S. aureus MW2 (NRS123); NRS123, passage 5, selection group DAP) was 0.5 µg/mL (≈ 1.35 µM). For the same compound, the MIC (S. aureus MW2 (NRS123); NRS123, passage 5, selection group DAP + CLI) was 0.5 µg/mL, the MIC (S. aureus MW2 (NRS123); NRS123, passage 5, selection group DAP + LZD) was 0.5 µg/mL and the MIC (S. aureus MW2 (NRS123); NRS123, passage 5, selection group DAP + TET) was 0.5 µg/mL. For the same compound, the MIC (S. aureus MW2 (NRS123); NRS123, passage 5, selection group DAP + TIA) was 0.5 µg/mL, the MIC (S. aureus MW2 (NRS123); NRS123, passage 5, selection group DAP + TMP/SMX) was 0.25 µg/mL and the MIC (S. aureus MW2 (NRS123); NRS123, passage 5, selection group DAP + TR-700) was 0.5 µg/mL. It also gave an MIC (S. aureus MW2 (NRS123); NRS123, passage 5, selection group DAP + TR-705) of 0.5 µg/mL, an MIC (S. aureus MW2 (NRS123); NRS123, passage 5, selection group DAP + VAN) of 0.25 µg/mL and an MIC (S. aureus MW2 (NRS123); NRS123, passage 10, selection group DAP) of 0.5 µg/mL (≈ 1.35 µM). It also gave an MIC (S. aureus MW2 (NRS123); NRS123, passage 10, selection group DAP + CLI) of 0.5 µg/mL, an MIC (S. aureus MW2 (NRS123); NRS123, passage 10, selection group DAP + LZD) of 0.5 µg/mL and an MIC (S. aureus MW2 (NRS123); NRS123, passage 10, selection group DAP + TET) of 0.5 µg/mL. It also gave an MIC (S. aureus MW2 (NRS123); NRS123, passage 10, selection group DAP + TIA) of 0.5 µg/mL, an MIC (S. aureus MW2 (NRS123); NRS123, passage 10, selection group DAP + TMP/SMX) of 0.5 µg/mL and an MIC (S. aureus MW2 (NRS123); NRS123, passage 10, selection group DAP + TR-700) of 0.5 µg/mL. For the same compound, the MIC (S. aureus MW2 (NRS123); NRS123, passage 10, selection group DAP + TR-705) was 0.5 µg/mL, the MIC (S. aureus MW2 (NRS123); NRS123, passage 10, selection group DAP + VAN) was 0.25 µg/mL and the MIC (S. aureus MW2 (NRS123); NRS123, passage 15, selection group DAP) was 0.25 µg/mL (≈ 0.675 µM). It also gave an MIC (S. aureus MW2 (NRS123); NRS123, passage 15, selection group DAP + CLI) of 0.25 µg/mL, an MIC (S. aureus MW2 (NRS123); NRS123, passage 15, selection group DAP + LZD) of 0.5 µg/mL and an MIC (S. aureus MW2 (NRS123); NRS123, passage 15, selection group DAP + TET) of 0.25 µg/mL. It also gave an MIC (S. aureus MW2 (NRS123); NRS123, passage 15, selection group DAP + TIA) of 0.5 µg/mL, an MIC (S. aureus MW2 (NRS123); NRS123, passage 15, selection group DAP + TMP/SMX) of 0.5 µg/mL and an MIC (S. aureus MW2 (NRS123); NRS123, passage 15, selection group DAP + TR-700) of 0.5 µg/mL. The MIC (S. aureus MW2 (NRS123); NRS123, passage 15, selection group DAP + TR-705) was 0.5 µg/mL, the MIC (S. aureus MW2 (NRS123); NRS123, passage 15, selection group DAP + VAN) was 0.5 µg/mL and the MIC (S. aureus MW2 (NRS123); NRS123, passage 20, selection group DAP) was 0.5 µg/mL (≈ 1.35 µM). For the same compound, the MIC (S. aureus MW2 (NRS123); NRS123, passage 20, selection group DAP + CLI) was 0.25 µg/mL, the MIC (S. aureus MW2 (NRS123); NRS123, passage 20, selection group DAP + LZD) was 0.5 µg/mL and the MIC (S. aureus MW2 (NRS123); NRS123, passage 20, selection group DAP + TET) was 0.25 µg/mL. The MIC (S. aureus MW2 (NRS123); NRS123, passage 20, selection group DAP + TIA) was 0.5 µg/mL, the MIC (S. aureus MW2 (NRS123); NRS123, passage 20, selection group DAP + TMP/SMX) was 0.5 µg/mL and the MIC (S. aureus MW2 (NRS123); NRS123, passage 20, selection group DAP + TR-700) was 0.5 µg/mL. It also gave an MIC (S. aureus MW2 (NRS123); NRS123, passage 20, selection group DAP + TR-705) of 0.5 µg/mL, an MIC (S. aureus MW2 (NRS123); NRS123, passage 20, selection group DAP + VAN) of 0.5 µg/mL and an MIC (S. aureus MW2 (NRS123); NRS123, passage 25, selection group DAP) of 0.25 µg/mL (≈ 0.675 µM). It also gave an MIC (S. aureus MW2 (NRS123); NRS123, passage 25, selection group DAP + CLI) of 0.25 µg/mL, an MIC (S. aureus MW2 (NRS123); NRS123, passage 25, selection group DAP + LZD) of 0.25 µg/mL and an MIC (S. aureus MW2 (NRS123); NRS123, passage 25, selection group DAP + TET) of 0.25 µg/mL. It also gave an MIC (S. aureus MW2 (NRS123); NRS123, passage 25, selection group DAP + TIA) of 0.5 µg/mL, an MIC (S. aureus MW2 (NRS123); NRS123, passage 25, selection group DAP + TMP/SMX) of 0.25 µg/mL and an MIC (S. aureus MW2 (NRS123); NRS123, passage 25, selection group DAP + TR-700) of 0.5 µg/mL. The MIC (S. aureus MW2 (NRS123); NRS123, passage 25, selection group DAP + TR-705) was 0.5 µg/mL, the MIC (S. aureus MW2 (NRS123); NRS123, passage 25, selection group DAP + VAN) was 0.25 µg/mL and the MIC (S. aureus MW2 (NRS123); NRS123, passage 30, selection group DAP) was 0.25 µg/mL (≈ 0.675 µM). The MIC (S. aureus MW2 (NRS123); NRS123, passage 30, selection group DAP + CLI) was 0.25 µg/mL, the MIC (S. aureus MW2 (NRS123); NRS123, passage 30, selection group DAP + LZD) was 0.5 µg/mL and the MIC (S. aureus MW2 (NRS123); NRS123, passage 30, selection group DAP + TET) was 0.25 µg/mL. For the same compound, the MIC (S. aureus MW2 (NRS123); NRS123, passage 30, selection group DAP + TIA) was 0.5 µg/mL, the MIC (S. aureus MW2 (NRS123); NRS123, passage 30, selection group DAP + TMP/SMX) was 0.5 µg/mL and the MIC (S. aureus MW2 (NRS123); NRS123, passage 30, selection group DAP + TR-700) was 0.5 µg/mL. For the same compound, the MIC (S. aureus MW2 (NRS123); NRS123, passage 30, selection group DAP + TR-705) was 0.5 µg/mL, the MIC (S. aureus MW2 (NRS123); NRS123, passage 30, selection group DAP + VAN) was 0.25 µg/mL and the MIC (S. aureus MW2 (NRS123); NRS123, read-out: DAP MIC by the end of the experiment (selection of DAP^ns strains), MW2, passaged with DAP alone or with co-selecting agent at ¼ MIC, CLSI breakpoint) was > 1 µg/mL. For the same compound, the “susceptibility to the co-selecting agent in its co-selection group” value (S. aureus MW2 (NRS123); over the course of 30 passages) was “did not demonstrate reduced susceptibility to TR-700”, the “DAP MIC lower than DAP-only control” value (S. aureus ATCC 33591; ATCC 33591, co-selecting agent at ¼ MIC) was 4 fold and the MIC (S. aureus ATCC 33591; ATCC33591, passage 0, ATCC 33591 WT) was 0.5 µg/mL (≈ 1.35 µM). The MIC (S. aureus ATCC 33591; ATCC33591, passage 5, selection group DAP) was 0.125 µg/mL (≈ 0.338 µM), the MIC (S. aureus ATCC 33591; ATCC33591, passage 5, selection group DAP + TMP/SMX) was 0.5 µg/mL and the MIC (S. aureus ATCC 33591; ATCC33591, passage 5, selection group DAP + TR-700) was 0.5 µg/mL. It also gave an MIC (S. aureus ATCC 33591; ATCC33591, passage 5, selection group DAP + VAN) of 0.5 µg/mL, an MIC (S. aureus ATCC 33591; ATCC33591, passage 10, selection group DAP) of 0.125 µg/mL (≈ 0.338 µM) and an MIC (S. aureus ATCC 33591; ATCC33591, passage 10, selection group DAP + TMP/SMX) of 0.25 µg/mL. For the same compound, the MIC (S. aureus ATCC 33591; ATCC33591, passage 10, selection group DAP + TR-700) was 0.5 µg/mL, the MIC (S. aureus ATCC 33591; ATCC33591, passage 10, selection group DAP + VAN) was 0.5 µg/mL and the MIC (S. aureus ATCC 33591; ATCC33591, passage 15, selection group DAP) was 0.125 µg/mL (≈ 0.338 µM). For the same compound, the MIC (S. aureus ATCC 33591; ATCC33591, passage 15, selection group DAP + TMP/SMX) was 0.25 µg/mL, the MIC (S. aureus ATCC 33591; ATCC33591, passage 15, selection group DAP + TR-700) was 0.5 µg/mL and the MIC (S. aureus ATCC 33591; ATCC33591, passage 15, selection group DAP + VAN) was 0.25 µg/mL. It also gave an MIC (S. aureus ATCC 33591; ATCC33591, passage 20, selection group DAP) of 0.125 µg/mL (≈ 0.338 µM), an MIC (S. aureus ATCC 33591; ATCC33591, passage 20, selection group DAP + TMP/SMX) of 0.25 µg/mL and an MIC (S. aureus ATCC 33591; ATCC33591, passage 20, selection group DAP + TR-700) of 0.5 µg/mL. It also gave an MIC (S. aureus ATCC 33591; ATCC33591, passage 20, selection group DAP + VAN) of 0.5 µg/mL, an MIC (S. aureus ATCC 33591; ATCC33591, passage 25, selection group DAP) of 0.125 µg/mL (≈ 0.338 µM) and an MIC (S. aureus ATCC 33591; ATCC33591, passage 25, selection group DAP + TMP/SMX) of 0.25 µg/mL. For the same compound, the MIC (S. aureus ATCC 33591; ATCC33591, passage 25, selection group DAP + TR-700) was 0.25 µg/mL, the MIC (S. aureus ATCC 33591; ATCC33591, passage 25, selection group DAP + VAN) was 0.25 µg/mL and the MIC (S. aureus ATCC 33591; ATCC33591, passage 30, selection group DAP) was 0.125 µg/mL (≈ 0.338 µM). The MIC (S. aureus ATCC 33591; ATCC33591, passage 30, selection group DAP + TMP/SMX) was 0.25 µg/mL, the MIC (S. aureus ATCC 33591; ATCC33591, passage 30, selection group DAP + TR-700) was 0.5 µg/mL and the MIC (S. aureus ATCC 33591; ATCC33591, passage 30, selection group DAP + VAN) was 0.5 µg/mL. For the same compound, the MIC (S. aureus ATCC 33591; ATCC33591, read-out: DAP MIC of the co-selection passage group, ATCC 33591, through P15, co-selecting agent at ¼ MIC) was ≤ 1 µg/mL.
